Test results taken from patent US7544497B2, “Compositions for manipulating the lifespan and stress response of cells and organisms” (President and Fellows of Harvard College, priority 2003, dated 2009).

Tests used:
[1] = biological target: recombinant GST-Sir2 (Saccharomyces cerevisiae, UniProt P06700); experiment: Sir2 deacetylation assay; format: biochemical, S. cerevisiae; details: in vitro dose-response
Experimental: To investigate whether these compounds could stimulate sirtuins in vivo, we utilized S. cerevisiae, an organism in which the upstream regulators and downstream targets of Sir2 are relatively well understood.
His6-tagged recombinant SIRT1 and GST-tagged recombinant Sir2 were prepared as previously described^26. From 0.1 to 1 μg of SIRT1 and 1.5 μg of Sir2 were used per deacetylation assay (in 50 μl total reaction) as previously described^26. SIRT1 assays and certain of those for Sir2 employed the p53-382 acetylated substrate (‘Fluor de Lys-SIRT1’, BIOMOL) rather than FdL.
Themed compound libraries (BIOMOL) were used for primary and secondary screening. […] For water soluble compounds and negative controls, 1% v/v DMSO was added to the assay. […] HeLa cells were grown and the cellular deacetylation assays were performed and read, as above, but in full-volume 96-well microplates (Corning Costar 3595). […] Calculation of net fluorescence increases included subtraction of a blank value, which in the case of Sir2 was obtained by omitting the enzyme from the reaction and in the case of SIRT1 by adding an inhibitor (200 μM suramin or 1 mM nicotinamide) to the reaction prior to the acetylated substrate. […]

[2] = tested on: C. elegans; experiment: C. elegans lifespan assay; format: in vivo
Experimental: Thus, the presence of resveratrol in the growth media of C. elegans extends their lifespan.
Bristol N2 (Caenorhabditis Genetics Center) was used as the wild-type strain. The sir-2.1 mutant strain was generated by backcrossing VC199 (sir-2.1 (ok434)) to N2 four times. Cultures were grown on standard NGM media and maintained on E. coli strain OP50. For the lifespan assays, synchronized animals were transferred to treatment plates as young adults (2 d after hatching, day 0 of assay), and were transferred to fresh treatment plates every 2 days for the first 6 to 8 days of the assay. […] For some lifespan trials, heat-killed OP50 were used as a food source. OP50 cultures were heated to 65° C. for 30 minutes, then pelleted and resuspended in 1/10 volume in S Basal supplemented with 10 mM MgSO4. In all assays, worms were monitored daily for mortality by gently probing with a platinum pick. Assays were performed at 24° C.

[3] = biological target: T1, recombinant dSir2 (Drosophila melanogaster, UniProt Q9VK34); experiment: dSir2 deacetylation assay (Fluor de Lys); format: biochemical, D. melanogaster; details: dose-dependent; 25 μM NAD+, 10 μM FdL
T1 sequence (Q9VK34 1-823): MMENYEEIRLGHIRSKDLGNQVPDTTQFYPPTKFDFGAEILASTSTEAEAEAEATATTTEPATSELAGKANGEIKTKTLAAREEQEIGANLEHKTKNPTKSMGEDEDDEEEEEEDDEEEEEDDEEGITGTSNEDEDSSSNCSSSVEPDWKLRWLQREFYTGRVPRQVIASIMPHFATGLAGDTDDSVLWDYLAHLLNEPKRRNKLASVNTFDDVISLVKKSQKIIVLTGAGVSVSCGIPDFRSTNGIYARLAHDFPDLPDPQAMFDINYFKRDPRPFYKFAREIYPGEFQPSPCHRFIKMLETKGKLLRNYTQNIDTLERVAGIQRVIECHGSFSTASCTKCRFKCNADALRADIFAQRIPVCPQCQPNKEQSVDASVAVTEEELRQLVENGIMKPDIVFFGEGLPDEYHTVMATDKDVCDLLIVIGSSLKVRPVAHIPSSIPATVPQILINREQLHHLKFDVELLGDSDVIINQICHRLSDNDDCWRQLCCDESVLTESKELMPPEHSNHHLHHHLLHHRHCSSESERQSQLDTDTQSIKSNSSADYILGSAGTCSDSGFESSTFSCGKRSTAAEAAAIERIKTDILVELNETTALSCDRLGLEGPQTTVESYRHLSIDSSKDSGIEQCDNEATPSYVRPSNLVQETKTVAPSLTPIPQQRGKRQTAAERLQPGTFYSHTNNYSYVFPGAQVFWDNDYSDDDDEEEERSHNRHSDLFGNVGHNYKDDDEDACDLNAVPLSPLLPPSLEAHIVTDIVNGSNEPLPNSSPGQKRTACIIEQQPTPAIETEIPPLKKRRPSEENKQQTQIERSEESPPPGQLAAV
Experimental: His6-tagged recombinant SIR-2.1 and dSir2 were purified from E. coli BL21(DE3) plysS cells harboring either pET28a-sir-2.1 or pRSETc-dSir2 plasmids. Cells were grown in LB medium containing kanamycin (50 μg/mL) for pET28a-sir-2.1 or ampicillin (100 μg/ml) and chloramphenicol (25 μg/ml) for pRSETc-dSir2 at 30° C. (dSir2) or 37° C. (SIR-2.1) to an OD600 of 0.6-0.8.
From 0.1 to 1 μg of SIR-2.1 and 1 μg of dSir2 were used per deacetylation assay as previously described with modifications (SIR-2.1: 200 μM NAD^+, 10 μM Fluor de Lys, FdL; dSir2: 25 μM NAD^+, 10 μM FdL)^26. […] Drosophila S2 cells were grown in Schneider media with fetal calf serum at 23-28° C., seeded at 9×10^4 cells/well, grown overnight and then exposed to 1 μM TSA, 500 μM polyphenols, and 200 μM FdL for 2 hr. […] Unless otherwise indicated all initial rate measurements were means of three or more replicates obtained with single incubation times, at which point 5% or less of the substrate initially present was deacetylated.

[4] = tested on: S. cerevisiae; experiment: Yeast replicative lifespan by micro-manipulation; details: for Average lifespan, growth on resveratrol: wild type untreated 21.0

recombinant GST-Sir2, sequence (P06700 whole entry): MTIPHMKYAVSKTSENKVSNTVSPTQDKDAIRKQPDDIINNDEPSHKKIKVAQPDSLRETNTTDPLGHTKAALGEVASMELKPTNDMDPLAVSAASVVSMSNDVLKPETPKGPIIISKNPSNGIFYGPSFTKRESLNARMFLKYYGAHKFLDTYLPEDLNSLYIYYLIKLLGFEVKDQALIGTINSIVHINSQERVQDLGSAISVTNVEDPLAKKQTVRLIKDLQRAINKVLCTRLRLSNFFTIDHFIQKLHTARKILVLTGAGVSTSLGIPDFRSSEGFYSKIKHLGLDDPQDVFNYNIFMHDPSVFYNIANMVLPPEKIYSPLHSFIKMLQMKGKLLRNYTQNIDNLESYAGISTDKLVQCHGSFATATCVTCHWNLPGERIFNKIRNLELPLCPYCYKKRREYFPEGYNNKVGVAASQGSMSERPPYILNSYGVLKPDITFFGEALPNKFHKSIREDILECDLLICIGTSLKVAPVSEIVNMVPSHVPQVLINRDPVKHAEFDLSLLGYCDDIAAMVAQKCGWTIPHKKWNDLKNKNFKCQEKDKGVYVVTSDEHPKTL

Question: Which results are given for `Oc1ccc(/C=C/c2cc(O)cc(O)c2)cc1` [Resveratrol, 3,5,4′-Trihydroxy-trans-stilbene]?
Answer: concentrations at which inhibition of Sir2 was seen [1]: greater than 100 μM; lifespan extension ([2]; sir-2.1 mutants, 100 μM, heat-killed OP50, not statistically significant): 5.2%; lifespan extension ([2]; sir-2.1 mutants, 100 μM, live OP50, P=0.81): 3.3%; lifespan extension ([2]; wild-type N2, 100 μM, live OP50): 12.6%; lifespan extension (up to) ([2]; wild-type worms, 100 μM, heat-killed or live E. coli): up to 15%; stimulation of deacetylation, dSir2 (up to) [3]: ≤ 2.4 fold; Average lifespan ([4]; 10 μM, complete 2% glucose medium, wild type untreated 22.9): 36.8 generations; Average lifespan, growth on resveratrol ([4]; 10 μM): 35.7 generations; Average lifespan, growth on resveratrol ([4]; 100 μM): 29.4 generations; Average lifespan, growth on resveratrol ([4]; 500 μM): 29.3 generations; Average lifespan, glucose-restricted+resveratrol (CR+R) ([4]; glucose restriction): 39.9 generations; Average lifespan, pnc1Δ+resveratrol ([4]; pnc1Δ untreated 19.2): 33.1 generations; Average lifespan, sir2Δ+resveratrol ([4]; sir2Δ untreated 9.9): 10.0 generations; Average lifespan, wild type+resveratrol (wt+R) ([4]; wild type untreated 19.0): 37.8 generations
